Measurements as given in publication PMC11741115, “New Hydrogenated Phenanthrene Glycosides from the Edible Vegetable Elatostema tenuicaudatum W.T.Wang with DPP-IV Inhibitory and Hepatoprotective Activity” (Journal of Agricultural and Food Chemistry, 2025).

Experiments:
HepG2 cells = assay: Hepatoprotective effect against acetaminophen-induced hepatotoxicity in HepG2 cells (MTT); format: cell-based, Human; conditions: for viability at 50 µM: Homo sapiens, HepG2, 50 μM compound, pretreated 8 h, 6 mM APAP for 36 h, MTT, read-out: cell viability (cytoprotection against APAP)
Method: Human hepatocellular carcinoma HepG2 cells were obtained from the Bioresource Collection and Research Center (BCRC, Hsinchu, Taiwan). Cells culture was conducted with a complete medium consisting of DMEM (Dulbecco's Modified Eagle Medium, Gibco), 10% (v/v) fetal bovine serum (FBS) (Gibco), and 1% (v/v) antibiotic -antimycotic […] (Gibco, 15240062). Upon reaching at 80% confluence, cells were rinsed with PBS and detached using trypsin -EDTA (Gibco, 25200072) at 37 °C for 5 minutes. Subsequently, cells were seeded into specialized 96 -well plates (3 × 10^4/well, 100 µL/well) and incubated for 24 hours at 37 °C with 5% CO2. […]
control cells were used as a reference under the same conditions. The maximum absorbance value depended on the solvent used in the sample solution, and the percentage viability of cells was determined using the formula: […]. […]
3.9.2. Assess hepatoprotective effects of compounds […]
using an acetaminophen-induced hepatotoxicity HepG2 model. Cells were initially seeded in 96 -well plates at a density of 3 × 10^4 cells/well and then incubated under identical conditions with 5% CO 2 for 24 hours. Following this, cells were exposed to the test samples. After 8 hours, hepatotoxicity was induced using acetaminophen (Sigma Aldrich, A7085) at a concentration of 6 mM. The protective effects were assessed by determining cell viability using the MTT method 36 hours post - acetaminophen induc tion. Silymarin (at concentration of 50 μg/mL) was used as positive control. […]

DPP-IV = target: T1, DPP-IV (Homo sapiens, UniProt P27487); assay: DPP-IV inhibition activity (DPP-IV Activity Assay Kit, AMC fluorescence); format: biochemical; conditions: for IC50: pure compounds; for DPP-IV inhibition (in words): summary
T1 construct: purchased BioVision K779-100
T1 sequence (P27487 whole entry, species assumed): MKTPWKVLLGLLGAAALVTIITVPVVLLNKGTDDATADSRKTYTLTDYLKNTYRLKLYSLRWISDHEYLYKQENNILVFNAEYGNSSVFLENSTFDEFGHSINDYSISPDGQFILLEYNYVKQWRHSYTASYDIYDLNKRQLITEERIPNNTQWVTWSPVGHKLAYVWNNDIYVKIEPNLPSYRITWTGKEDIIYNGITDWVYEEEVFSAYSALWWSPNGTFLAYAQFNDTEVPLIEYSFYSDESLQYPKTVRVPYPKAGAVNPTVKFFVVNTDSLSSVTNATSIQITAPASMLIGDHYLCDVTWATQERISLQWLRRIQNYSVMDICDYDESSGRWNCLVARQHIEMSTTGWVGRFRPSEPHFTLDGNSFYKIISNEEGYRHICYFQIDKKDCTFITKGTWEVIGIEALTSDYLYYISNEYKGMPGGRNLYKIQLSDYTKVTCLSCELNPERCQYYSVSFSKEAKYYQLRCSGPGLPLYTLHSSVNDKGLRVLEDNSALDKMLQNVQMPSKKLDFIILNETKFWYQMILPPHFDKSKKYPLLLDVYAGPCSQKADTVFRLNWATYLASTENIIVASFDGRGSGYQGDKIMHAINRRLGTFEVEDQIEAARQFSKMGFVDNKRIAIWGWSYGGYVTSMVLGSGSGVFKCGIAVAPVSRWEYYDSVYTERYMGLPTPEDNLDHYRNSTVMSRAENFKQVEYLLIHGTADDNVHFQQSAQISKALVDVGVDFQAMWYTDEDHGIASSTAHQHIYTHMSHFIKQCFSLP
Method: 2.7. DPP-IV inhibition activity
A commercially available DPP -IV Activity Assay Kit (K779 -100, BioVision) was employed to evaluate DPP-IV activity. The procedures were conducted according to the manufacturer’s instructions. DPP-IV enzymatically cleaves substrates, leading to the release o f the quenched fluorescent group AMC (7 -Amino-4-Methyl Coumarin). AMC detection was measured with a fluorescence reader at Ex/Em = 360/460 nm. […]

`COc1cc2c(cc1O[C@@H]1O[C@H](CO)[C@@H](O)[C@H](O)[C@H]1O)[C@@]1(O)C(=O)C[C@H](O)C[C@@H]1CC2` [Compound 1, elatostemanoside A] was tested, and the “hepatoprotective effect in acetaminophen-induced hepatotoxicity in HepG2 (in words)” value (“hepatoprotective effect” below) (HepG2 cells) was “significant hepatoprotective effects”, the viability at 50 µM (HepG2 cells) was 85.6% and the inhibition at 400 µM (DPP-IV) was over 50%.

`COc1cc2c(cc1O[C@@H]1O[C@H](CO)[C@@H](O)[C@H](O)[C@H]1O)[C@@]1(O)C(=O)C[C@@H](O)C[C@@H]1CC2` [Compound 2, elatostemanoside B] gave an inhibition at 400 µM (DPP-IV) of over 50%.

For `COc1cc2c(cc1O[C@@H]1O[C@H](CO)[C@@H](O)[C@H](O)[C@H]1O)[C@@]1(O)C(=O)C[C@H](O)C[C@H]1CC2` [Compound 5, elatostemanoside E], the inhibition at 150 µM (DPP-IV) was at least 50%, the inhibition at 400 µM (DPP-IV) was over 50% and the IC50 (DPP-IV) was 142 ± 15.6 µM. The “DPP-IV inhibition (in words)” value (DPP-IV) was “weak effects”.

For `COc1cc2c(cc1O[C@@H]1O[C@H](CO)[C@@H](O)[C@H](O)[C@H]1O)[C@@]1(O)C(=O)C[C@@H](O)C[C@H]1CC2` [Compound 6, elatostemanoside F], the inhibition at 150 µM (DPP-IV) was at least 50%, the inhibition at 400 µM (DPP-IV) was over 50% and the IC50 (DPP-IV) was 151 ± 11.8 µM. For the same compound, the “DPP-IV inhibition (in words)” value (DPP-IV) was “weak effects”.

`COc1cc2c(cc1O[C@@H]1O[C@H](CO)[C@@H](O)[C@H](O)[C@H]1O)[C@@]1(O)C(=O)[C@@H](O)[C@H](O)C[C@H]1CC2` [Compound 8, elatostemanoside H] gave an inhibition at 150 µM (DPP-IV) of at least 50%, an inhibition at 400 µM (DPP-IV) of over 50% and an IC50 (DPP-IV) of 108 ± 19.6 µM. For the same compound, the “DPP-IV inhibition (in words)” value (DPP-IV) was “weak effects”.

In the case of `COc1cc2c(cc1O[C@@H]1O[C@H](CO)[C@@H](O)[C@H](O)[C@H]1O)[C@@]1(O)C(=O)C=CC[C@@H]1CC2` [Compound 9, elatostemanoside I], the “hepatoprotective effect” value (HepG2 cells) is reported as “significant hepatoprotective effects” and the viability at 50 µM (HepG2 cells) is reported as 82.6%.

Work on `COc1cc2c(cc1O[C@@H]1O[C@H](CO)[C@@H](O)[C@H](O)[C@H]1O)[C@@]1(OC)C(=O)C=CC[C@@H]1CC2` [Compound 10, elatostemanoside J] yielded an inhibition at 400 µM (DPP-IV) of over 50%.

In the case of `COc1cc2c(cc1O[C@@H]1O[C@H](CO)[C@@H](O)[C@H](O)[C@H]1O)[C@@]1(O)C(=O)C=CC[C@H]1CC2` [Compound 11, elatostemanoside K], the “hepatoprotective effect” value (HepG2 cells) is reported as “significant hepatoprotective effects” and the viability at 50 µM (HepG2 cells) is reported as 81.6%.

With `OC[C@H]1O[C@@H](Oc2cc3c(cc2O)CCc2cccc(O)c2-3)[C@H](O)[C@@H](O)[C@@H]1O` [Compound 14, 7,4-dihydroxy-9,10-dihydrophenanthrene 6-O-β-D-glucopyranoside] the “hepatoprotective effect” value (HepG2 cells) was “significant hepatoprotective effects”, the viability at 50 µM (HepG2 cells) was 78.8% and the inhibition at 150 µM (DPP-IV) was at least 50%. The inhibition at 400 µM (DPP-IV) was over 50%, the IC50 (DPP-IV) was 71.9 ± 8.9 µM and the “DPP-IV inhibition (in words)” value (DPP-IV) was “moderate inhibition”.

`COc1cc2c(cc1O[C@@H]1O[C@H](CO[C@@H]3O[C@@H](C)[C@H](O)[C@@H](O)[C@H]3O)[C@@H](O)[C@H](O)[C@H]1O)-c1c(O)cccc1CC2` [Compound 15, elatostemanoside O] showed an inhibition at 400 µM (DPP-IV) of over 50%.

Compound `COc1cc2c(cc1OC1OC(CO)C(O)C(O)C1O)C1(O)C(=O)CC(C3=CCC4CCc5cc(OC)c(OC6OC(CO)C(O)C(O)C6O)cc5C4(O)C3=O)CC1CC2` (centres unmarked) [Compound 16, elatostemanoside P] has an inhibition at 400 µM (DPP-IV) of over 50%.
